The target in one assay is T1, WNK1A (Homo sapiens, UniProt Q9H4A3).
T1 construct: purchased in-house DSF kinase panel (SGC-style construct names; the trailing letter is the construct ID)
As to the kind of experiment: DSF Tm panel. The class given is binding. Particulars: 10 μM compound.

In another assay the target is T2, FGFR3A (Homo sapiens, UniProt P22607).
T2 construct: purchased in-house DSF kinase panel (SGC-style construct names; the trailing letter is the construct ID)
As to the kind of experiment: DSF Tm panel. In kind it is binding. Particulars: 10 μM compound.

In assay [1] the target is SLK (Homo sapiens, UniProt Q9H2G2). As to the kind of experiment: Surface plasmon resonance (SPR). The class given is binding. Particulars: kinetic fit, Figure S3.
Assay [2] has as its target T3, STK10 (Homo sapiens, UniProt O94804).
T3 construct: purchased in-house DSF kinase panel (SGC-style construct names; the trailing letter is the construct ID)
Kind of assay: Surface plasmon resonance (SPR). The class given is binding. The conditions noted are these: 1:1 Langmuir kinetic model, 25 °C. As to the method:
each well using a multichannel pipette (Eppendorf). Plates were incubated at 37 °C for 1 hour.
For substrate addition, 5 μL of 8 μM AQT0505 peptide was added to each well using the Mantis […]
temperature for an additional hour.
Fluorescence of the SOX-peptide was measured after excitation at 360 nm and emission at 487 nm using a PHERAstar plate reader (BMG Labtech). IC50 values were calculated by nonlinear regression of log[inhibitor] versus normalized response using GraphPad Prism 8 (www.graphpad.com, RRID:SCR_002798).
SPR. Surface plasmon resonance (SPR) experiments were conducted using a Biacore T200 instrument equipped with a Series S Sensor Chip NTA (Cytiva) at 25 °C. His-STK10 was immobilized at a flow rate of 10 µL/min on flow channels (FC) 2 while FC1 served as a blank reference without protein. Nickel loading of the chip was achieved by injecting 500 µM NiCl₂.
To activate the chip surface for covalent coupling, 483 mM EDC and 10 mM NHS were mixed in a 1:1 (v/v) ratio and injected. […]
Compound 23 was measured in duplicates using Multi-Cycle Kinetics, with 10 concentrations ranging from 0.01 µM to 5 μM injected across FC1 and FC2 at 30 µL/min for 150 s. Interaction data was FC1-referenced, blank-subtracted, solvent-corrected, and analyzed using Biacore T200 Evaluation Software version 3.2.1. […]

A further assay deals with T4, MAPK8B (Homo sapiens, UniProt P45983).
T4 construct: purchased in-house DSF kinase panel (SGC-style construct names; the trailing letter is the construct ID)
T4 sequence (P45983 1-364): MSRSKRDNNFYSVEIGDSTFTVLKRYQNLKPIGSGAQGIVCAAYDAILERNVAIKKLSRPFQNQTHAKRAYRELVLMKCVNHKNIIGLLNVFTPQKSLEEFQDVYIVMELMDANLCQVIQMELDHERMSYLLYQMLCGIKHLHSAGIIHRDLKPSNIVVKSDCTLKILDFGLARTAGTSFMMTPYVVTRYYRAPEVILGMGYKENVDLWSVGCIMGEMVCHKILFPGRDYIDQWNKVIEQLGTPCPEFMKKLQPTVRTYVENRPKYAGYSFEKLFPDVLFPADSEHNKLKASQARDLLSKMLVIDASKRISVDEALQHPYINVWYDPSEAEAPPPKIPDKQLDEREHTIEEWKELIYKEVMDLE
As to the kind of experiment: DSF Tm panel. In kind it is binding. Particulars: 10 μM compound.

In a further assay the target is T5, MSSK1A (Homo sapiens, UniProt Q9UPE1).
T5 construct: purchased in-house DSF kinase panel (SGC-style construct names; the trailing letter is the construct ID)
T5 sequence (Q9UPE1 79-565): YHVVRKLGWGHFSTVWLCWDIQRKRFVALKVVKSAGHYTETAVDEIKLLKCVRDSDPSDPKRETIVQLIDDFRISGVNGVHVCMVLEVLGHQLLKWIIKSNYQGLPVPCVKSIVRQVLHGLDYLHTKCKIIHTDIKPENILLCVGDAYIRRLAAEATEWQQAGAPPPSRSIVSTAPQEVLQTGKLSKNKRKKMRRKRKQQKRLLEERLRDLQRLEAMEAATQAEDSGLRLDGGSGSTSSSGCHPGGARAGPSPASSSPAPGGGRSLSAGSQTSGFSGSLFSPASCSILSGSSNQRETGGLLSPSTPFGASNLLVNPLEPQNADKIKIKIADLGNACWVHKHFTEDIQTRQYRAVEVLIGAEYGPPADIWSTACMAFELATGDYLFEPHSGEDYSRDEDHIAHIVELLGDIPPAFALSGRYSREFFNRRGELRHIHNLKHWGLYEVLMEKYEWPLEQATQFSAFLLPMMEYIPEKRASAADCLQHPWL
Kind of assay: DSF Tm panel. The class given is binding. The conditions noted are these: 10 μM compound.

The next assay addresses T6, MAP2K7A (Homo sapiens, UniProt O14733).
T6 construct: purchased in-house DSF kinase panel (SGC-style construct names; the trailing letter is the construct ID)
T6 sequence (O14733 120-400): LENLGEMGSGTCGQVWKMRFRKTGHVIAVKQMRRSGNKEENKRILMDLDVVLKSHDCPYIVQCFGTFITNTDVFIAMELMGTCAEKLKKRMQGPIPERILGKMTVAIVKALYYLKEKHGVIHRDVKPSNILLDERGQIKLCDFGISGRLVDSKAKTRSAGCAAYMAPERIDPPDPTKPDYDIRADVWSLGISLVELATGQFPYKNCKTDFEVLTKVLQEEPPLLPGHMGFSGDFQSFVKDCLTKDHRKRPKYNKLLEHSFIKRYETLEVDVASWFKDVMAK
As to the kind of experiment: DSF Tm panel. In kind it is binding. The conditions noted are these: 10 μM compound.

A further assay addresses T7, NEK7A (Homo sapiens, UniProt Q8TDX7).
T7 construct: purchased in-house DSF kinase panel (SGC-style construct names; the trailing letter is the construct ID)
As to the kind of experiment: DSF Tm panel. In kind it is binding. The conditions noted are these: 10 μM compound.

For the next assay, the target named is T8, FECHHSB (Homo sapiens, UniProt P22830).
T8 construct: purchased in-house DSF kinase panel (SGC-style construct names; the trailing letter is the construct ID)
T8 sequence (P22830 55-423): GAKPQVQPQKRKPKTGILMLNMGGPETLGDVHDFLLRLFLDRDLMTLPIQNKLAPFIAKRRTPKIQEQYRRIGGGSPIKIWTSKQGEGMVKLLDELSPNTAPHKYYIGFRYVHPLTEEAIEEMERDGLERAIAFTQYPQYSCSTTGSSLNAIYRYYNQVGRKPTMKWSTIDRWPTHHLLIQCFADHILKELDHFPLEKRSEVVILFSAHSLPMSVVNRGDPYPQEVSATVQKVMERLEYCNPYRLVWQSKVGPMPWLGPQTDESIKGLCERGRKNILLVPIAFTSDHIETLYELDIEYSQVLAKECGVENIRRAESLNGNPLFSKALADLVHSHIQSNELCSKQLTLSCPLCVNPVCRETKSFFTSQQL
As to the kind of experiment: DSF Tm panel. In kind it is binding. Particulars: 10 μM compound.

Assay [3] deals with SLK. Further details: method as in Serafim et al. Particulars: Figure 1, previous published dual STK10/SLK inhibitors, ref Serafim et al.; read-out: SLK cellular IC50; cited from earlier work.
In assay [4] the target is T3, STK10. The conditions noted are these: Figure 1, previous published dual STK10/SLK inhibitors, ref Serafim et al.; read-out: STK10 in vitro IC50; cited from earlier work.
The target of assay [5] is T3, STK10. The conditions noted are these: Figure 1, previous published dual STK10/SLK inhibitors, ref Serafim et al.; read-out: STK10 cellular IC50; cited from earlier work.

Several values for one entry are separate records, joined by “and”; a condition that tells them apart may be missing. Equal values may be shown once. Read-outs that look alike come from different tables or passages of the source.

In general, ΔTm refers to the change in melting temperature against a reference sample. As a reminder, the Kd is the free concentration of one partner at which half of the binding sites on the other are occupied at equilibrium, for simple one-to-one binding. The IC50 is the concentration at which inhibition is half-maximal.

T7 sequence (Q8TDX7 whole entry): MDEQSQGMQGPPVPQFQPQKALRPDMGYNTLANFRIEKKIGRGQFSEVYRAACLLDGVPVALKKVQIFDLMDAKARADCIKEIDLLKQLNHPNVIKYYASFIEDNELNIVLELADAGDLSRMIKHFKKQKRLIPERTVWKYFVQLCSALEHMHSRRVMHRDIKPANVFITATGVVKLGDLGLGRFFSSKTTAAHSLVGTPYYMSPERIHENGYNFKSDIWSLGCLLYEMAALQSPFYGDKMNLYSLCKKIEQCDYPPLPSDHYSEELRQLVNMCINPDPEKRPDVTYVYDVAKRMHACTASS
T3 sequence (O94804 18-317 limits assumed): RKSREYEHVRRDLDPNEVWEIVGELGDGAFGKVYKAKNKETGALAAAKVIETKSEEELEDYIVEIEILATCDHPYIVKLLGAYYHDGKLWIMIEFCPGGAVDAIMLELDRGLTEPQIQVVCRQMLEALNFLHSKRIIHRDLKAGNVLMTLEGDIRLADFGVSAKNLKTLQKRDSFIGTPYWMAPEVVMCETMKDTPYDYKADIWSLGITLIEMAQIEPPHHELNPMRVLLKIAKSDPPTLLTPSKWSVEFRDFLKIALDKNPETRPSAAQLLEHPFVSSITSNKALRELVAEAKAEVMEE
T1 sequence (Q9H4A3 206-483): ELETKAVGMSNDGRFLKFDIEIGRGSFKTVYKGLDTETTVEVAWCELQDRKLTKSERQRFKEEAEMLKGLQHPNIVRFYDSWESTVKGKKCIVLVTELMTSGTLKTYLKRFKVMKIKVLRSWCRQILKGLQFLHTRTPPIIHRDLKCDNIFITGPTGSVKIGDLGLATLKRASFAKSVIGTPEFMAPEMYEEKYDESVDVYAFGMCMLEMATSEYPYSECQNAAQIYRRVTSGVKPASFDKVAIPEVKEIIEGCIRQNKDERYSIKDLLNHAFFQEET
T2 sequence (P22607 472-761): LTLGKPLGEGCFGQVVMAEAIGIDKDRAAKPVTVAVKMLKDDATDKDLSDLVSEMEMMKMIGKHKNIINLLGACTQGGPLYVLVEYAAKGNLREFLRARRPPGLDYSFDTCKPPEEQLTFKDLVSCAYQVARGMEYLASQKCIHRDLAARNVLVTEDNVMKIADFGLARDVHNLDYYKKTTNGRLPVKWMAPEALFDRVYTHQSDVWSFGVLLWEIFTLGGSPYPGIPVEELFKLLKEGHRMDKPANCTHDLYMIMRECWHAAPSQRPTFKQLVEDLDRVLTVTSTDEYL

In the case of `O=C(NCc1ccccc1)Nc1ccc2cc1OCCOCCNc1ccn3ncc-2c3n1` [compound 16], the results for the thermal shift (ΔTm) at 10 µM at WNK1A and on FGFR3A were 0 °C and 5 °C, respectively.

Turning to `O=C(NCc1ccccc1Cl)Nc1ccc2cc1OCCOCCNc1ccn3ncc-2c3n1` [compound 17], the ΔTm at 10 µM on WNK1A amounted to 0.5 °C; at FGFR3A it was 2.1 °C.

In the case of `O=C(NCc1cccc(Cl)c1)Nc1ccc2cc1OCCOCCNc1ccn3ncc-2c3n1` [compound 18], the ΔTm at 10 µM on WNK1A is 0.09 °C; at FGFR3A, 3.6 °C.

As for `O=C(NCc1ccc(Cl)cc1)Nc1ccc2cc1OCCOCCNc1ccn3ncc-2c3n1` [compound 19], the results for the ΔTm at 10 µM at WNK1A and on FGFR3A were -0.2 °C and 1.7 °C, respectively.

Regarding `O=C(NCc1ccc(Cl)cc1Cl)Nc1ccc2cc1OCCOCCNc1ccn3ncc-2c3n1` [compound 20], the ΔTm at 10 µM is 0.4 °C on WNK1A and 1.4 °C at FGFR3A.

Consider `O=C(NCc1ccc(Cl)cc1F)Nc1ccc2cc1OCCOCCNc1ccn3ncc-2c3n1` [compound 21], for which the ΔTm at 10 µM on WNK1A is -0.2 °C; at FGFR3A, 1.6 °C.

As to `Cc1cc(Cl)ccc1CNC(=O)Nc1ccc2cc1OCCOCCNc1ccn3ncc-2c3n1` [compound 23], the Kd at SLK [1] was 0.985 ± 0.855 µM; at STK10 [2], 0.365 ± 0.045 µM. At SLK [1], the “Kd SLK (SPR)” value is reported as “mainly nonspecific binding”. The ΔTm at 10 µM on WNK1A came out at 1.6 °C; on FGFR3A, 2.5 °C.

As for `Cc1cc(Br)ccc1CNC(=O)Nc1ccc2cc1OCCOCCNc1ccn3ncc-2c3n1` [compound 24], the thermal shift (ΔTm) at 10 µM on MAPK8B worked out at 0.6 °C; at MSSK1A, 0.2 °C; on MAP2K7A, 0.3 °C; on NEK7A it was 1.6 °C.

As to `Cc1ccc(F)cc1CNC(=O)Nc1ccc2cc1OCCOCCNc1ccn3ncc-2c3n1` [compound 26], the ΔTm at 10 µM on MAPK8B worked out at 0.5 °C; on MSSK1A, 0.4 °C; on MAP2K7A, 0.1 °C; on NEK7A, 0.9 °C.

As to `O=C(NCc1ccccc1C(F)(F)F)Nc1ccc2cc1OCCOCCNc1ccn3ncc-2c3n1` [compound 27], the ΔTm at 10 µM on MAPK8B is 0.5 °C; at MSSK1A it was 0.5 °C; at MAP2K7A it was 1 °C; on NEK7A, 2 °C.

Take `O=C(NCc1ccc(C(F)(F)F)cc1)Nc1ccc2cc1OCCOCCNc1ccn3ncc-2c3n1` [compound 28]: the ΔTm at 10 µM on MAPK8B was found to be 0.9 °C; on MSSK1A, 0.3 °C; on MAP2K7A, 1.1 °C; at NEK7A, 2.3 °C.

Take `COc1ccccc1CNC(=O)Nc1ccc2cc1OCCOCCNc1ccn3ncc-2c3n1` [compound 29]: the ΔTm at 10 µM at MAPK8B is 1.1 °C; at MSSK1A it was 0.5 °C; at MAP2K7A, 0.1 °C; at FECHHSB, -3.1 °C; at NEK7A, 1.7 °C.

For `COc1cccc(CNC(=O)Nc2ccc3cc2OCCOCCNc2ccn4ncc-3c4n2)c1` [compound 30], the ΔTm at 10 µM at MAPK8B is 1.2 °C; on MSSK1A, 0.4 °C; at MAP2K7A, 0.1 °C; on FECHHSB, -3.8 °C; on NEK7A, 1 °C.

In the case of `COc1ccc(CNC(=O)Nc2ccc3cc2OCCOCCNc2ccn4ncc-3c4n2)cc1` [compound 31], the ΔTm at 10 µM at MAPK8B is 1.1 °C; on MSSK1A, 0.7 °C; on MAP2K7A, 0.5 °C; on NEK7A it was 0.6 °C. Besides, the IC50 in the assay on SLK [3] is 0.7 µM; on STK10 [4], 0.012 µM; on STK10 [5], > 1 µM and 1.4 µM.

Regarding `COc1ccc(CNC(=O)Nc2ccc3cc2OCCOCCNc2ccn4ncc-3c4n2)cc1F` [compound 32], the thermal shift (ΔTm) at 10 µM on MAPK8B worked out at 0.8 °C; at MSSK1A, 0.4 °C; on MAP2K7A it was 0.5 °C; on NEK7A, 1.3 °C.

As for `COc1cc(CNC(=O)Nc2ccc3cc2OCCOCCNc2ccn4ncc-3c4n2)ccc1F` [compound 33], the ΔTm at 10 µM came out at 0.9 °C at MAPK8B, 0.4 °C at MSSK1A, 0 °C on MAP2K7A and 1.4 °C at NEK7A.

As for `C[C@H](NC(=O)Nc1ccc2cc1OCCOCCNc1ccn3ncc-2c3n1)c1ccccc1` [compound 34], the ΔTm at 10 µM on MAPK8B worked out at 0.9 °C; on MSSK1A, 0.4 °C; on MAP2K7A, 0 °C; on NEK7A it was 0.9 °C.

As to `CN1CCN(C(=O)Nc2ccc3cc2OCCOCCNc2ccn4ncc-3c4n2)CC1` [compound 35], the figures for the ΔTm at 10 µM at WNK1A and at FGFR3A were 0.4 °C and 3 °C, respectively.

The record behind these values is PMC12621043, “Un-LOK-ing a New Approach for Conformational Selective Targeting of STK10 (LOK)” (ACS Medicinal Chemistry Letters, 2025).
